The source made the active and inactive calls. No cut-off for these calls is given here.
Columns and labels:
MDA-MB-231 [1] = test: Antiproliferative activity against human MDA-MB-231 cells assessed as inhibition of cell growth at 0.01 to 100 uM incubated for 72 hrs in presence of Fer-1 by MTT assay; assay type: functional, cell-based; details: dose 0.01-100 µM
MDA-MB-231 [2] = test: Induction of apoptosis in human MDA-MB-231 cells assessed as upregulation of caspase-9 expression at 0.25 to 1 uM by Western blot analysis; assay type: functional, cell-based; details: dose 0.25-1 µM
MDA-MB-231 [3] = test: Induction of ferroptosis in human MDA-MB-231 cells assessed as decrease in FTH1 expression in presence of Fer-1 by Western blot analysis; assay type: functional, cell-based
MDA-MB-231 [4] = test: Induction of apoptosis in human MDA-MB-231 cells assessed as viable cells at 0.25 uM by Annexin V-FITC staining based flow cytometric analysis (reference value: 91.03%); assay type: functional; details: read-out: Activity
MDA-MB-231 [5] = test: Induction of apoptosis in human MDA-MB-231 cells assessed as necrotic cells at 0.25 uM by Annexin V-FITC staining based flow cytometric analysis (reference value: 7.98 %); assay type: functional
MDA-MB-231 [6] = test: Inhibition of Bcl-xl expression in human MDA-MB-231 cells at 0.25 to 1 uM by Western blot analysis; assay type: functional, cell-based; details: dose 0.25-1 µM
MDA-MB-231 [7] = test: Induction of apoptosis in human MDA-MB-231 cells assessed as necrotic cells at 1 uM by Annexin V-FITC staining based flow cytometric analysis (reference value: 7.98 %); assay type: functional
MDA-MB-231 [8] = test: Antimigratory activity in human MDA-MB-231 cells assessed as inhibition of cell migration at 0.02 to 0.5 uM incubated for 24 hrs by scratch assay; assay type: functional, cell-based; details: dose 0.02-0.5 µM
MDA-MB-231 [9] = test: Downregulation of caspase-8 expression in human MDA-MB-231 cells at 0.25 to 1 uM by Western blot analysis; assay type: functional, cell-based; details: dose 0.25-1 µM
MDA-MB-231 [10] = test: Antitumor activity against human MDA-MB-231 cells xenografted in nude mouse assessed as reduction in tumor weight at 20 mg/kg, ip administered for 30 days relative to control; assay type: functional; design: scale not given: the % may be the effect or the level left; details: time 30 day
MDA-MB-231 [11] = test: Upregulation of Bax expression in human MDA-MB-231 cells at 0.25 to 1 uM by Western blot analysis; assay type: functional, cell-based; details: dose 0.25-1 µM
MDA-MB-231 [12] = test: Antitumor activity against human MDA-MB-231 cells xenografted in nude mouse assessed as reduction in tumor weight at 10 mg/kg, ip administered for 30 days relative to control; assay type: functional; design: scale not given: the % may be the effect or the level left; details: time 30 day
[13] = Acute toxicity in female ICR mouse assessed as liver pathological abnormalities at 50 mg/kg, ip measured after 2 days; assay type: organism-based; details: in vivo, 48 h, time 2 day
MDA-MB-231 [14] = test: Induction of apoptosis in human MDA-MB-231 cells assessed as late apoptotic cells at 0.5 uM by Annexin V-FITC staining based flow cytometric analysis (reference value: 0.02 %); assay type: functional
MDA-MB-231 [15] = test: Induction of apoptosis in human MDA-MB-231 cells assessed as viable cells at 1 uM by Annexin V-FITC staining based flow cytometric analysis (reference value: 91.03%); assay type: functional; details: read-out: Activity
MDA-MB-231 [16] = test: Induction of apoptosis in human MDA-MB-231 cells assessed as necrotic cells at 0.5 uM by Annexin V-FITC staining based flow cytometric analysis (reference value: 7.98 %); assay type: functional
[17] = Drug metabolism in nude mouse xenografted with human MDA-MB-231 cells assessed as aurovertin-B release at 10 to 20 mg/kg, ip administered for 30 days by LC-MS/MS analysis; assay type: ADME, organism-based; details: in vivo, 720 h, dose 10-20 mg/kg, time 30 day
MDA-MB-231 [18] = test: Induction of apoptosis in human MDA-MB-231 cells assessed as upregulation of cleaved caspase-3 expression at 0.25 to 1 uM by Western blot analysis; assay type: functional, cell-based; details: dose 0.25-1 µM
4T1 [19] = test: Antiinvasive activity against mouse 4T1 cells assessed as inhibition of cell invasion at 0.5 uM measured after 24 hrs by crystal violet staining based transwell invasion assay relative to control; assay type: functional
[20] = Cytotoxicity against human MCF-10A cells assessed as reduction in cell viability incubated for 72 hrs by MTT assay; assay type: toxicity, cell-based
MDA-MB-231 [21] = test: Induction of ferroptosis in human MDA-MB-231 cells assessed as decrease in GSH/GSSG ratio incubated for 24 hrs by GSH colorimetric assay; assay type: functional, cell-based; details: dose 0.25-1 µM
[22] = Acute toxicity in female ICR mouse assessed as effect on behavior at <40 mg/kg, ip measured within 24 hrs; assay type: organism-based; details: in vivo
[23] = Selectivity index, ratio of IC50 for cytotoxicity against human MCF-10A cells to IC50 for antiproliferative activity against human MDA-MB-231 cells; assay type: toxicity, cell-based; details: MCF-10A cells versus MDA-MB-231 cells, read-out: Ratio IC50
MDA-MB-231 [24] = test: Upregulation of Bid expression in human MDA-MB-231 cells at 0.25 to 1 uM by Western blot analysis; assay type: functional, cell-based; details: dose 0.25-1 µM
[25] = Acute toxicity in female ICR mouse assessed as kidney pathological abnormalities at 50 mg/kg, ip measured after 2 days; assay type: organism-based; details: in vivo, 48 h, time 2 day
4T1 [26] = test: Downregulation of phosphorylated AKT protein level at Thr308 residue in mouse 4T1 cells at 0.02 to 2.5 uM incubated for 24 hrs by Western blot analysis; assay type: functional, cell-based; details: dose 0.02-2.5 µM
T47D = test: Antiproliferative activity against human T47D cells assessed as reduction in cell viability incubated for 72 hrs by MTT assay; assay type: functional, cell-based
MDA-MB-231 [27] = test: Antiinvasive activity against human MDA-MB-231 cells assessed as inhibition of cell invasion at 0.5 uM measured after 24 hrs by crystal violet staining based transwell invasion assay relative to control; assay type: functional
Cell membrane = test: Induction of mitochondrial membrane loss in human MDA-MB-231 cells assessed as increase in ratio of green fluorescence at 0.25 to 1 uM incubated for 24 hrs by JC-1 staining based; assay type: cell membranes; details: dose 0.25-1 µM
4T1 [28] = test: Downregulation of phosphorylated JNK protein level at Thr183/185 residues in mouse 4T1 cells at 0.02 to 2.5 uM incubated for 24 hrs by Western blot analysis; assay type: functional, cell-based; details: dose 0.02-2.5 µM

## CC[C@H]1O[C@@]2(C)[C@H](OC(C)=O)[C@@]1(C)O[C@@H](/C=C/C=C/C=C/c1oc(=O)cc(OC)c1C)[C@@H]2OC(=O)CCC(=O)OC/C=C/COc1no[n+]([O-])c1S(=O)(=O)c1ccccc1
MDA-MB-231 [1]
  Activity: inactive
MDA-MB-231 [2]
  Activity: Active
MDA-MB-231 [3]
  Activity: inactive
MDA-MB-231 [4]
  viability at 0.25 µM: 80.8%
MDA-MB-231 [5]
  Activity: 0.37%
MDA-MB-231 [6]
  inhibition: Active
MDA-MB-231 [7]
  Activity: 1.42%
MDA-MB-231 [8]
  Activity: Active
MDA-MB-231 [9]
  Activity: Active
MDA-MB-231 [10]
  Activity: 91%
MDA-MB-231 [11]
  Activity: Active
MDA-MB-231 [12]
  Activity: 86%
[13]
  Activity: Non-Toxic
MDA-MB-231 [14]
  Activity: 8.01%
MDA-MB-231 [15]
  viability at 1 µM: 47%
MDA-MB-231 [16]
  Activity: 0.44%
[17]
  Drug metabolism: Metabolite_Detected
MDA-MB-231 [18]
  Activity: Active
4T1 [19]
  inhibition at 0.5 µM: 62.8%
[20]
  IC50 at 72 h: > 50 µM
MDA-MB-231 [21]
  Activity: Dose-Dependent Effect
[22]
  Activity: Non-Toxic
[23]
  selectivity ratio: > 79
MDA-MB-231 [24]
  Activity: Active
[25]
  Activity: Non-Toxic
4T1 [26]
  Activity: Active
T47D
  IC50: > 50 µM
MDA-MB-231 [27]
  inhibition at 0.5 µM: 60.7%
Cell membrane
  Activity: Active
4T1 [28]
  Activity: Active

Reference: ChEMBL document CHEMBL5523764, “Discovery of NO Donor-Aurovertin Hybrids as Dual Ferroptosis and Apoptosis Inducers for Treating Triple Negative Breast Cancer” (J Med Chem, 2024)
